These results are taken from patent US20120115903A1, “Substituted Heteroaromatic Carboxamide and Urea Compounds as Vanilloid Receptor Ligands” (Gruenenthal GmbH, priority 2010, published 2012).

What is called Ki is a measure of affinity in units of concentration, obtained from inhibition or displacement. For orientation: inhibition means the change of the read-out against control, counted positive when it falls. A word on the IC50: it is the concentration that inhibits the measured activity by half.

Experiment [1] has as its target T1, vanilloid receptor 1 (VR1/TRPV1 receptor) (Homo sapiens, UniProt Q8NER1).
T1 construct: expressed in transfected cells; host or cells: CHO K1 cells (ECACC), stably transfected
In words: FLIPR Ca2+ influx assay with CHO K1 cells transfected with the human VR1 gene, capsaicin stimulus. Format: cell-based. The conditions noted are these: Cap = capsaicin (100 nM), Ki from IC50 by Cheng-Prusoff, read-out: Ki (human being) [nM] Cap. How it is done: Furthermore, preference may be given to compounds according to the invention of general formula (I) that cause a 50 percent displacement of capsaicin, which is present at a concentration of 100 nM, in a FLIPR assay with CHO K1 cells which were transfected with the human VR1 gene at a concentration of less than 2,000 nM, preferably less than 1,000 nM, particularly preferably less than 300 nM, most particularly preferably less than 100 nM, even more preferably less than 75 nM, additionally preferably less than 50 nM, most preferably less than 10 nM. In the process, the Ca^2+ influx is quantified in the FLIPR assay with the aid of a Ca^2+-sensitive dye (type Fluo-4, Molecular Probes Europe BV, Leiden, the Netherlands) in a fluorescent imaging plate reader (FLIPR, Molecular Devices, Sunnyvale, USA), as described hereinafter. The agonistic or antagonistic effect of the substances to be tested on the vanilloid receptor 1 (VR1) can also be determined using the following assay. In this assay, the influx of Ca^2+ through the channel is quantified with the aid of a Ca^2+-sensitive dye (type Fluo-4, Molecular Probes Europe BV, Leiden, the Netherlands) in a fluorescent imaging plate reader (FLIPR, Molecular Devices, Sunnyvale, USA). Chinese hamster ovary cells (CHO K1 cells, European Collection of Cell Cultures (ECACC) United Kingdom) are stably transfected with the VR1 gene. For functional testing, these cells are plated out on poly-D-lysine-coated black 96-well plates having a clear base (BD Biosciences, Heidelberg, Germany) at a density of 25,000 cells/well. The cells are incubated overnight at 37° C. and 5% CO2 in a culture medium (Ham's F12 nutrient mixture, 10% by volume of FCS (foetal calf serum), 18 μg/ml of L-proline). The next day the cells are incubated with Fluo-4 (Fluo-4 2 μM, 0.01% by volume of Pluronic F127, Molecular Probes in HBSS (Hank's buffered saline solution), Gibco Invitrogen GmbH, Karlsruhe, Germany) for 30 minutes at 37° C. Subsequently, the plates are washed three times with HBSS buffer and after further incubation for 15 minutes at RT used for Ca^2+ measurement in a FLIPR assay. The Ca^2+-dependent fluorescence is measured before and after the addition of the substances to be tested (λex wavelength=488 nm, λem=540 nm). Quantification is carried out by measuring the highest fluorescence intensity (FC, fluorescence counts) over time. The FLIPR protocol consists of 2 substance additions. First the compounds to be tested (10 μM) are pipetted onto the cells and the Ca^2+ influx is compared with the control (capsaicin 10 μM) (% activation based on the Ca^2+ signal after the addition of 10 μM of capsaicin). After 5 minutes' incubation, 100 nM of capsaicin are applied and the Ca^2+ influx is also determined. Desensitising agonists and antagonists led to suppression of the Ca^2+ influx. The % inhibition is calculated compared to the maximum achievable inhibition with 10 μM of capsaicin. Starting from the percentage displacement caused by different concentrations of the compounds to be tested of general formula I, IC50 inhibitory concentrations which cause a 50-percent displacement of capsaicin were calculated. K, values for the test substances were obtained by conversion by means of the Cheng-Prusoff equation (Cheng, Prusoff; Biochem. Pharmacol. 22, 3099-3108, 1973). The affinity of the compounds according to the invention for the vanilloid receptor 1 (VR1/TRPV1 receptor) was determined as described hereinbefore (pharmacological methods I and II respectively). The compounds according to the invention of the above-indicated formula (I) display outstanding affinity to the VR1/TRPV1 receptor (Table 1.).

For experiment [2], the target named is T1, vanilloid receptor 1 (VR1/TRPV1 receptor). The experiment in a line: Functional test on vanilloid receptor 1, 45° C. stimulus (human). Format: cell-based. The conditions noted are these: for IC50: read-out: IC50 (human being) [nM], 45° C.

T1 sequence (Q8NER1 whole entry): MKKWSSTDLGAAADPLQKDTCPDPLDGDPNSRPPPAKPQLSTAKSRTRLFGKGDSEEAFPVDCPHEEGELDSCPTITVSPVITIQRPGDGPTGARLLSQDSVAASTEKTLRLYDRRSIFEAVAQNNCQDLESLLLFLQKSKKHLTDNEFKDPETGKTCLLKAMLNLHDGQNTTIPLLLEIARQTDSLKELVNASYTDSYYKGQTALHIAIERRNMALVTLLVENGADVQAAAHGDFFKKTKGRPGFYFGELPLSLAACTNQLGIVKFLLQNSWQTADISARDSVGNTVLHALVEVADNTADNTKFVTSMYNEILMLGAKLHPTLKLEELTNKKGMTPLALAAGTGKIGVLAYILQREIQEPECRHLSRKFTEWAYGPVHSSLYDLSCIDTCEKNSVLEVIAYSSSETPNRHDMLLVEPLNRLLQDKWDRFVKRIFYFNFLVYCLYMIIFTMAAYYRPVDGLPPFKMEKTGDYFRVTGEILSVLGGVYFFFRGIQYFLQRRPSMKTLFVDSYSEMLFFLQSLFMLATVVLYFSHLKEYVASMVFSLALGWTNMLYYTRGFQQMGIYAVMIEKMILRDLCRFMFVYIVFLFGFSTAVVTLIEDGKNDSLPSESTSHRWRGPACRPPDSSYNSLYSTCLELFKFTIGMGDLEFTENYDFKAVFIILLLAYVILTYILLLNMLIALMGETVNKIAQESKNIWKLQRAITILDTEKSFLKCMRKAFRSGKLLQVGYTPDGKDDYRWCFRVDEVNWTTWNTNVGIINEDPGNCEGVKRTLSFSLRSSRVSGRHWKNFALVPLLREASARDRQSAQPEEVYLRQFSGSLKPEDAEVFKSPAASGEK

Take `CC(C(=O)NCc1cc(C(F)(F)F)nn1-c1ccccc1)c1cn(C)c2ccccc12` (centres unmarked) [Example 1, 2-(1-methyl-1H-indol-3-yl)-N-((1-phenyl-3-(trifluoromethyl)-1H-pyrazol-5-yl)methyl)propanamide]: the Ki in experiment [1] came to 42.1 nM.

For `CC(C(=O)NCc1cc(C(C)(C)C)nn1-c1cccc(Cl)c1)c1cn(C)c2ccccc12` (centres unmarked) [Example 2, N-((3-tert-butyl-1-(3-chlorophenyl)-1H-pyrazol-5-yl)methyl)-2-(1-methyl-1H-indol-3-yl)propanamide], the Ki in experiment [1] is 33.6 nM.

`COc1cccc(-n2nc(C(F)(F)F)cc2CNC(=O)C(C)c2cn(C)c3ccccc23)c1` (centres unmarked) [Example 3, N-((1-(3-methoxyphenyl)-3-(trifluoromethyl)-1H-pyrazol-5-yl)methyl)-2-(1-methyl-1H-indol-3-yl)propanamide]: the inhibition constant (Ki) in experiment [1] amounted to 49.8 nM.

With `CC(C(=O)NCc1cc(C(C)(C)C)nn1-c1ccccn1)c1cn(C)c2ccc(O)cc12` (centres unmarked) [Example 6, N-((3-tert-butyl-1-(pyridin-2-yl)-1H-pyrazol-5-yl)methyl)-2-(5-hydroxy-1-methyl-1H-indol-3-yl)propanamide], in experiment [1], the inhibition constant Ki is 56.8 nM.

`Cc1c(C(F)(F)F)nn(-c2cccc(Cl)c2)c1CNC(=O)C(C)c1cn(C)c2ccc(O)cc12` (centres unmarked) [Example 7, N-((1-(3-chlorophenyl)-4-methyl-3-(trifluoromethyl)-1H-pyrazol-5-yl)methyl)-2-(5-hydroxy-1-methyl-1H-indol-3-yl)propanamide]: in experiment [1], the inhibitory constant (Ki) was determined as 0.4 nM. Also, the inhibition at 2.5 µM in experiment [2] (@ 2.5 μM compound, read-out: inhibition (as a percentage), human being, 45° C.) came out at 36%.

For the compound `CC(C(=O)NCc1cc(C(F)(F)F)nn1-c1cccc(Cl)c1)c1cn(C)c2ccccc12` (centres unmarked) [Example 8, N-((1-(3-chlorophenyl)-3-(trifluoromethyl)-1H-pyrazol-5-yl)methyl)-2-(1-methyl-1H-indol-3-yl)propanamide], the inhibition constant (Ki) in experiment [1] worked out at 6.4 nM. Moreover, the IC50 in experiment [2] was found to be 924 nM.

As for `Cn1cc(CC(=O)NCc2cc(C(F)(F)F)nn2-c2cccc(Cl)c2)c2cc(O)ccc21` [Example 9, N-((1-(3-chlorophenyl)-3-(trifluoromethyl)-1H-pyrazol-5-yl)methyl)-2-(5-hydroxy-1-methyl-1H-indol-3-yl)acetamide], in experiment [1], the Ki came out at 0.25 nM. Also, the half-inhibitory concentration (IC50) in experiment [2] stood at 1730 nM.

Consider `CC(C(=O)NCc1cc(C(C)(C)C)nn1-c1ccc(F)c(Cl)c1)c1cn(C)c2ccc(O)cc12` (centres unmarked) [Example 11, N-((3-tert-butyl-1-(3-chloro-4-fluorophenyl)-1H-pyrazol-5-yl)methyl)-2-(5-hydroxy-1-methyl-1H-indol-3-yl)propanamide], for which the inhibition constant Ki in experiment [1] came out at 0.7 nM. The half-maximal inhibitory concentration (IC50) in experiment [2] amounted to 39 nM.

For the compound `CC(C(=O)NCc1cc(C2CC2)nn1-c1cccc(Cl)c1)c1cn(C)c2ccc(O)cc12` (centres unmarked) [Example 12, N-((1-(3-chlorophenyl)-3-cyclopropyl-1H-pyrazol-5-yl)methyl)-2-(5-hydroxy-1-methyl-1H-indol-3-yl)propanamide], the Ki in experiment [1] worked out at 1.1 nM. For the same compound, the half-maximal inhibitory concentration (IC50) in experiment [2] came out at 95.8 nM.

For the compound `COc1ccc2c(c1)c(CC(=O)NCc1cc(C(C)(C)C)nn1-c1cccc(Cl)c1)cn2C` [Example 13, N-((3-tert-butyl-1-(3-chlorophenyl)-1H-pyrazol-5-yl)methyl)-2-(5-methoxy-1-methyl-1H-indol-3-yl)acetamide], the Ki in experiment [1] came out at 33.3 nM.

On to `COc1ccc2c(c1)c(C(C)C(=O)NCc1cc(C(C)(C)C)nn1-c1cccc(Cl)c1)cn2C` (centres unmarked) [Example 14, N-((3-tert-butyl-1-(3-chlorophenyl)-1H-pyrazol-5-yl)methyl)-2-(5-methoxy-1-methyl-1H-indol-3-yl)propanamide], for which the Ki in experiment [1] came out at 48.1 nM.

Take `Cn1cc(CC(=O)NCc2nc(C(C)(C)C)nn2-c2cccc(Cl)c2)c2cc(O)ccc21` [Example 18, N-((3-tert-butyl-1-(3-chlorophenyl)-1H-1,2,4-triazol-5-yl)methyl)-2-(5-hydroxy-1-methyl-1H-indol-3-yl)acetamide]: the inhibitory constant (Ki) in experiment [1] is 70.9 nM.
